Assays:
[1] = target: EGFR (Homo sapiens, UniProt P00533); test: EGFR kinase inhibitory assay (Kinase-Glo Max luminescence); format: biochemical; conditions: for IC50: mean of three values, read-out: IC50 (Mean ± SEM), EGFR
[2] = target: VEGFR-2 (Homo sapiens, UniProt P35968); test: VEGFR-2 inhibitory assay (ELISA); format: biochemical; conditions: for IC50: mean of three values, read-out: IC50 (Mean ± SEM), VEGFR-2
Experimental: The cells were harvested, and the homogenates were prepared in saline using a tight pestle homogenizer until complete cell disruption. The kit uses a double-antibody sandwich enzyme-linked immunosorbent assay (ELISA) to determine the level of human VEGFR-2 in samples. A monoclonal antibody for VEGFR-2 was pre-coated onto 96-well plates. The test samples are added to the wells, and a biotinylated detection polyclonal antibody from goat specific for VEGFR-2 was added subsequently followed by washing with PBS buffer. Avidin-Biotin-Peroxidase complex was added, and the unbound conjugates were washed away with PBS buffer. HRP substrate TMB was used to visualize HRP enzymatic reaction. TMB was catalyzed by HRP to produce a blue color product that changed into yellow after adding acidic stop solution. The density of yellow color is proportional to the human VEGFR-2 amount of the sample captured in the plate. The chroma of color and the concentration of the human VEGFR-2 of the samples were positively correlated, and the optical density was determined at 450 nm. The level of human VEGFR-2 in samples was calculated (pg/ml) as duplicate determinations from the standard curve. Percent inhibition was calculated in comparison to control untreated cells.

[3] = system: human breast adenocarcinoma (MDA-MB-231 cell lines); test: MTT cytotoxicity assay, MDA-MB-231; format: cell-based; conditions: MDA-MB-231, 48 h
Experimental: (§1) The synthesized compounds were studied for their cytotoxic activity against several human cancer cell lines, namely human osteosarcoma (HOS cell lines), human breast adenocarcinoma (MDA-MB-231 cell lines), human breast cancer (MCF-7 cell lines), human colorectal adenocarcinoma (Caco-2 cell lines) and human colon cell line (HCT-116 cell lines) using MTT assay at 100 µM, and the results were outlined as shown in Table 1.
(§2) Human osteosarcoma (HOS cell line), human breast adenocarcinoma (MDA-MB-231cell lines), human breast cancer (MCF-7 cell lines), human colorectal adenocarcinoma (Caco2 cell lines), human colon cell line (HCT-116 cell lines), normal human cell lines (BJ-1), and “a telomerase immortalized normal foreskin fibroblast cell line” were obtained from Karolinska Center, Department of Oncology and Pathology, Karolinska Institute and Hospital, Stockholm, Sweden.
(§3) Following culturing for 10 days, the cells were seeded at concentration of 10 × 10^3 cells per well in case of MCF-7 & MDA, 20 × 10^3 cells/well in a fresh complete growth medium in case of HCT-116, Caco2, & HOS and 40 × 10^3 cells/well in case of BJ-1 at 37 °C for 24 h in a water jacketed carbon dioxide incubator. After 48 h’ incubation, the medium was aspirated, and then 40 μl MTT salt (2.5 mg/mL) were added for a further 4 h; 200 μl 10% sodium dodecyl sulphate (SDS) in deionized water were added to each well and incubated overnight at 37 °C. The absorbance was measured at 595 nm with reference 690 nm. Doxorubicin was used as positive control, and 0.5% DMSO was used as negative control. IC50 values were calculated, using a probit analysis, and by utilizing the SPSS computer program (SPSS for Windows, statistical analysis software package/version 9/1989 SPSS Inc., Chicago, IL, USA).

[4] = system: human breast cancer (MCF-7 cell lines); test: MTT cytotoxicity assay, MCF-7; format: cell-based; conditions: for cytotoxicity at 100 µM: MCF7, 48 h; for IC50: MCF7, MTT, 0.78–100 µM, ± SD
Experimental: as §1, §2, §3

[5] = system: human osteosarcoma (HOS cell lines); test: MTT cytotoxicity assay, HOS; format: cell-based; conditions: 48 h
Experimental: as §1, §2, §3

[6] = system: human colorectal adenocarcinoma (Caco-2 cell lines); test: MTT cytotoxicity assay, Caco-2; format: cell-based; conditions: Caco-2, 48 h
Experimental: as §1, §2, §3

[7] = system: human colon cell line (HCT-116 cell lines); test: MTT cytotoxicity assay, HCT-116; format: cell-based; conditions: for cytotoxicity at 100 µM: HCT-116, 48 h
Experimental: as §1, §2, §3

[8] = target: CDK-2/cyclin A2 (Homo sapiens, UniProt P24941); test: CDK-2/cyclin A2 inhibitory assay (ELISA); format: biochemical; conditions: for IC50: mean of three values, read-out: IC50 (Mean ± SEM), CDK-2/Cyclin A2
Experimental: Assay of CDK-2/cyclin A2 was achieved through ELISA using an affinity tag labeled capture antibody. […] After the incubation period, the unrestrained substance has been discarded, and the wells have been washed. The added TMB (3,3′,5,5′-tetramethylbenzidine) substrate was prompted by Horseradish peroxidase (HRP), and blue coloration appeared. This reaction was stopped through the addition of stop solution to complete changing in colour from blue to yellow. The created signals were equivalent to the quantity of bound analyte, and the Robonik P2000 ELISA reader was used to record the intensity at a certain wavelength (450 nm).

[9] = system: normal human skin cell lines BJ-1; test: Safety on normal human skin cells BJ-1 (MTT); format: cell-based; conditions: 100 µM
Experimental: To determine the selectivity and safety, all tested compounds were subjected to an assay for their safety upon normal human skin cell lines BJ-1 at a concentration of 100 µM.
as §2, §3

Chain of EGFR (P00533 25-1210): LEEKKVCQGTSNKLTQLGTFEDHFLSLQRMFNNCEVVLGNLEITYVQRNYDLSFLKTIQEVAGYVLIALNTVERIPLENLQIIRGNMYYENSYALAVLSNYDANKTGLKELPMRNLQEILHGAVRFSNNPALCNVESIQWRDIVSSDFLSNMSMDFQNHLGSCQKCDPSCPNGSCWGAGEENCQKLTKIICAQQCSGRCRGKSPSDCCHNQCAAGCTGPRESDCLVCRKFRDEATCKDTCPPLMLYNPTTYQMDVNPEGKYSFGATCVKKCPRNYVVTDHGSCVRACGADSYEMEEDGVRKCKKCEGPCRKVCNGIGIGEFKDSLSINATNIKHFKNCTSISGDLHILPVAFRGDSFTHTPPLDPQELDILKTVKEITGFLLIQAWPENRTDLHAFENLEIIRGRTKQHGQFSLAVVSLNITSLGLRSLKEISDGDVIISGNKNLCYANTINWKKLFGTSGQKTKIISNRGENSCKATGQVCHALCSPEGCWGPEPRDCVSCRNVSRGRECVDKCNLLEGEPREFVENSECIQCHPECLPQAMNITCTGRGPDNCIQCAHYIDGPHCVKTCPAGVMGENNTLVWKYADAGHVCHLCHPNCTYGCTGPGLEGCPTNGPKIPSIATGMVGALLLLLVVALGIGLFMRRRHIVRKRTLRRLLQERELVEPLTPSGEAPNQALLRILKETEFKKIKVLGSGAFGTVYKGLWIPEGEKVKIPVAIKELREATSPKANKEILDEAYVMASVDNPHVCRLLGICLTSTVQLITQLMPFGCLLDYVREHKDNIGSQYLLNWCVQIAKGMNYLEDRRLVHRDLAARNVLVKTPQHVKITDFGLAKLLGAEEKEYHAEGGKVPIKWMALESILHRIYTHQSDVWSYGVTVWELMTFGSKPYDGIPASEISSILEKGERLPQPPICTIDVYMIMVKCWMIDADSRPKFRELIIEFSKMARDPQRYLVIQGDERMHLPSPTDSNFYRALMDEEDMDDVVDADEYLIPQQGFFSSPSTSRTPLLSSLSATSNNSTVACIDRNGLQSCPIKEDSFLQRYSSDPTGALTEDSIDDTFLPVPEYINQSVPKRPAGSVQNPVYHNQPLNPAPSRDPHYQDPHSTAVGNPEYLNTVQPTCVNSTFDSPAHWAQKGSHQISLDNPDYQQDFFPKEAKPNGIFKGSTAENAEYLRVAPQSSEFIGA
Chain of VEGFR-2 (P35968 20-1356): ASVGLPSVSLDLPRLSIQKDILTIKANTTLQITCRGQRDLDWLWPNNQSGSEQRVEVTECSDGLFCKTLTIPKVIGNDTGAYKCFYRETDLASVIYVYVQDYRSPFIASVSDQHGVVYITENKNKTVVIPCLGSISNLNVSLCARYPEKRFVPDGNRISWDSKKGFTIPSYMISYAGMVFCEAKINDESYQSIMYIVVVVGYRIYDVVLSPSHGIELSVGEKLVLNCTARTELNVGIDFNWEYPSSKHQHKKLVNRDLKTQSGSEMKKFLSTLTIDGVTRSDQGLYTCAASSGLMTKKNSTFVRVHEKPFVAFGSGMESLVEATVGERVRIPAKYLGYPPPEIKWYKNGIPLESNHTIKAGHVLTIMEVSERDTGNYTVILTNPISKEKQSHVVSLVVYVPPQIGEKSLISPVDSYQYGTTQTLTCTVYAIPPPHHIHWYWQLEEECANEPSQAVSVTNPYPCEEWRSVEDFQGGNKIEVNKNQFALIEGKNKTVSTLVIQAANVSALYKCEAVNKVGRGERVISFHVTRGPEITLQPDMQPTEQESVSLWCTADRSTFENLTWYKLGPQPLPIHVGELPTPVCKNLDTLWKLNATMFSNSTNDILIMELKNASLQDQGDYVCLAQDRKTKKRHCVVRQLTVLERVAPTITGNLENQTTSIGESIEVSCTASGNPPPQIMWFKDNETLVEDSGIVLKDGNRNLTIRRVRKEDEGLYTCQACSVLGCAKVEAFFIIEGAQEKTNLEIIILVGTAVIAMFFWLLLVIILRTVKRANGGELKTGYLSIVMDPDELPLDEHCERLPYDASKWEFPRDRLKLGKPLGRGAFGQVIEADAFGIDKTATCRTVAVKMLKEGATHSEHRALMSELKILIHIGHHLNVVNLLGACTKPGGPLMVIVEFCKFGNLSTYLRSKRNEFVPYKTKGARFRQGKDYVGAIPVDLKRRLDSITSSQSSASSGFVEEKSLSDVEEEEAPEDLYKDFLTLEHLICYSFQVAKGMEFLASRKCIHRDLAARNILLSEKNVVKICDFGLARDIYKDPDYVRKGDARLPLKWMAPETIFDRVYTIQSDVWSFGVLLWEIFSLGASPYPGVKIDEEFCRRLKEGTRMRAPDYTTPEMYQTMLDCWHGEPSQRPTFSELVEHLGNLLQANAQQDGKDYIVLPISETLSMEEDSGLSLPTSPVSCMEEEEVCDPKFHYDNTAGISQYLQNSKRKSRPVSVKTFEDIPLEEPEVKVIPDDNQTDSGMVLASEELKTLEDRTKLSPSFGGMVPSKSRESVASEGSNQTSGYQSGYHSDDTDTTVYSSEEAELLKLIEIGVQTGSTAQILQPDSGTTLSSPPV

Structure (SMILES)	IC50 [1]	IC50 [2]	cytotoxicity at 100 µM [3]	cytotoxicity at 100 µM [4]	IC50 [4]	cytotoxicity at 100 µM [5]	cytotoxicity at 100 µM [6]	melting point	cytotoxicity at 100 µM [7]	IC50 [8]	Inhibitory activity against EGFR (in words) [1]	Inhibitory activity against VEGFR-2 (in words) [2]	IC50 ([7]; HCT-116, MTT, 0.78–100 µM, ± SD)	Inhibitory activity against CDK-2/cyclin A2 (in words) [8]	Toxicity on normal skin cells BJ-1 (in words) [9]
Cn1c(COc2ccc3c(-c4ccccc4)cc(=O)oc3c2)nnc1SC1OCC(O)C(O)C1O [Compound 8, 4-Phenyl-7-((4-methyl-5-(1-(β-D-xylopyranosyl)thio)-4H-1,2,4-triazol-3-yl)meth-oxy)-2H-chromen-2-one]	0.22 ± 0.01 µM	0.93 ± 0.42 µM	37.1 ± 2.3%	60.1 ± 0.7%	52.2 ± 1.3 µM	41.9 ± 0.7%	28.4 ± 0.6%	231 to 232 °C	23 ± 0.6%	0.24 ± 0.2 µM	–	–	–	–	–
CC(=O)OC[C@H]1O[C@@H](OCc2cn(CCCOc3ccc4c(-c5ccccc5)cc(=O)oc4c3)nn2)[C@H](OC(C)=O)[C@@H](OC(C)=O)[C@H]1OC(C)=O [Compound 21]	123 ± 0.1 µM	172 ± 0.02 µM	26.4 ± 0.3%	85.4 ± 1.8%	38.9 ± 0.8 µM	58.3 ± 1.7%	59.2 ± 1.1%	114 to 115 °C	64.9 ± 0.5%	211 ± 0.05 µM	no inhibitory activities	no inhibitory activities	82.8 ± 2.3 µM	no inhibitory activities	–
O=c1cc(-c2ccccc2)c2ccc(OCCCn3cc(CO[C@@H]4OC[C@@H](O)[C@H](O)[C@H]4O)nn3)cc2o1 [Compound 25]	–	–	94.2 ± 2.2%	81.9 ± 0.9%	–	90.4 ± 0.8%	82.7 ± 1.1%	188 to 189 °C	97.1 ± 1.1%	–	–	–	–	–	high toxicity
O=c1cc(-c2ccccc2)c2ccc(OCCCCn3cc(CO[C@@H]4O[C@H](CO)[C@H](O)[C@H](O)[C@H]4O)nn3)cc2o1 [Compound 26]	–	–	31.4 ± 0.5%	91.8 ± 1.2%	–	66.9 ± 2.2%	2.6 ± 0.2%	195 to 196 °C	83.9 ± 0.9%	–	–	–	–	–	high toxicity

— paper PMC9458111, “New 1,2,3-Triazole-Coumarin-Glycoside Hybrids and Their 1,2,4-Triazolyl Thioglycoside Analogs Targeting Mitochondria Apoptotic Pathway: Synthesis, Anticancer Activity and Docking Simulation” (Molecules, 2022)
